This is an account of results in patent US11180485B2, “Diaryl-azole compound and formulation for controlling harmful organism” (Nippon Soda Co., Ltd., priority 2016, dated 2021).

One data set has as its system Culex pipiens molestus. Nature of the data set: Test Example 10: efficacy test against Culex pipiens molestus. The note with it: 24 h, 20 first-instar larvae in 100 mL, after one day, read-out: mortality rate against first-instar larvae of Culex pipiens molestus (converted). Format: in vivo. As to the method:
(§1) 5 parts of the compound of the present invention, 93.6 parts of dimethylformamide and 1.4 parts of polyoxyethylene alkyl aryl ether were mixed and dissolved to prepare Emulsion (1) including 5% of an active ingredient.
(§2) An insect mortality rate and a controlling rate were calculated by the numerical equations shown below. Insect mortality rate (%)=(Number of dead insects)/(Number of sample insects)×100 Controlling rate={1−(Nt)/(Nc)}×100
Emulsion (1) was diluted with water so that the concentration of the compound of the present invention was 10 ppm, to prepare a chemical liquid for testing. 20 first-instar larvae of Culex pipiens molestus were released in 100 mL of the chemical liquid. After one day, the number of dead insects was counted, and the insect mortality rate was calculated. The test was performed twice.

A further data set concerns Plutella xylostella. Description: Test Example 3: efficacy test against Plutella xylostella (cabbage leaf soak). It counts as in vivo. The note with it: 72 h, cabbage leaves soaked 30 seconds, second-instar larvae, 3 days after inoculation, read-out: mortality rate against Plutella xylostella. As to the method: as §1, §2
Emulsion (1) was diluted with water so that the concentration of the compound of the present invention was 125 ppm. Cabbage leaves were soaked in the diluted liquid for 30 seconds. Subsequently, the cabbage leaves were put on Petri dishes, followed by inoculating 5 second-instar larvae of Plutella xylostella. The Petri dishes were placed in a thermostatic chamber at a temperature of 25° C. and humidity of 60%. Mortality was investigated 3 days after inoculation, and the insect mortality rate was calculated. The test was performed twice.

Another data set relates to Aphis craccivora. Description: Test Example 4: efficacy test against Aphis craccivora (spray on black-eyed pea plants). It counts as in vivo. Conditions: in Vigna unguiculata, 96 h, sprayed on black-eyed pea plants with nymphs, 4 days after spraying, read-out: mortality rate against Aphis craccivora. As to the method:
as §1, §2
Black-eyed pea plants were raised in No. 3 pots and the primary leaves were inoculated with nymphs of Aphis craccivora. Emulsion (1) was diluted with water so that the concentration of the compound of the present invention was 125 ppm. Subsequently, the aforementioned diluted liquid was sprayed on the black-eyed pea plants on which the nymphs of Aphis craccivora were parasitic. The aforementioned black-eyed pea plants were then placed in a thermostatic chamber with a temperature of 25° C. and humidity of 60%. Mortality was investigated 4 days after spraying was carried out, and the insect mortality rate of Aphis craccivora was calculated. The test was performed twice.

A further data set concerns Nilaparvata lugens. Nature of the data set: Test Examples 6 and 13: efficacy test against Nilaparvata lugens (rice seedling soak). It counts as in vivo. Conditions: 168 h, rice seedlings soaked 30 seconds, second-instar larvae, 7 days after inoculation, read-out: mortality rate against Nilaparvata lugens. As to the method:
as §1, §2
Emulsion (1) was diluted with water so that the concentration of the compound of the present invention was 125 ppm. Rice seedlings were soaked in the diluted liquid for 30 seconds, and subjected to air-drying. Subsequently, the rice seedlings were placed in plastic cases, followed by inoculating 5 second-instar larvae of Nilaparvata lugens. The plastic cases were placed in a thermostatic chamber at a temperature of 25° C. and humidity of 65%. Mortality was investigated 7 days after inoculation, and the insect mortality rate was calculated. The test was performed twice.
Emulsion (1) was diluted with water so that the concentration of the compound of the present invention was 8 ppm. Rice seedlings were soaked in the diluted liquid for 30 seconds, and subjected to air-drying. Subsequently, the rice seedlings were placed in plastic cases, followed by inoculating 5 second-instar larvae of Nilaparvata lugens. The plastic cases were placed in a thermostatic chamber at a temperature of 25° C. and humidity of 65%. Mortality was investigated 7 days after inoculation, and the insect mortality rate was calculated. The test was performed twice.

The test system of a further data set is Phyllotreta striolata. Description: Test Examples 7 and 14: efficacy test against Phyllotreta striolata (spray on bok-choi seedlings). Format: in vivo. Conditions: 168 h, sprayed on bok-choi seedlings, adults, 7 days after inoculation, read-out: mortality rate against adult Phyllotreta striolata. As to the method: as §1, §2
(§3) Emulsion (1) was diluted with water so that the concentration of the compound of the present invention was 125 ppm, to prepare a diluted liquid for testing. The aforementioned diluted liquid was sprayed on bok-choi seedlings (7th major leaf-development period) planted in No. 3 pots. After the bok-choi seedlings were subjected to air-drying, the seedlings were placed in plastic cups, followed by inoculating 10 adult Phyllotreta striolata. The plastic cups were stored in a thermostatic chamber at a temperature of 25° C. and humidity of 65%. Mortality was investigated 7 days after inoculation, and the insect mortality rate was calculated. The test was performed twice.
as §3, with “8” for “125”

As for `CCS(=O)(=O)c1cnc(-n2cncn2)nc1-c1ncc(-c2ccc(OC(F)(F)F)cc2)n1C` [Compound No. 3, 5-(ethylsulfonyl)-4-(1-methyl-5-(4-(trifluoromethoxy)phenyl)-1H-imidazol-2-yl)-2-(1H-1,2,4-triazol-1-yl)pyrimidine], the mortality at 10 ppm with Culex pipiens molestus is 100%.
On to `CCS(=O)(=O)c1cnc(-c2ncccn2)nc1-c1ncc(-c2ccc(OC(F)(F)F)cc2)n1C` [Compound No. 7, 5-(ethylsulfonyl)-4-(1-methyl-5-(4-(trifluoromethoxy)phenyl)-1H-imidazol-2-yl)-2,2′-bipyrimidine], for which the mortality at 125 ppm in the data set on Plutella xylostella, with Aphis craccivora, in the data set with Nilaparvata lugens and in the data set with Phyllotreta striolata was ≥ 80% each time. The mortality at 8 ppm with Nilaparvata lugens (8 ppm) and in the data set with Phyllotreta striolata (8 ppm) was ≥ 80% throughout.
Take `CCS(=O)(=O)c1ccc(-n2cnc(C)n2)nc1-c1ncc(-c2ccc(OC(F)(F)F)cc2)n1C` [Compound No. a-8, 3-(ethylsulfonyl)-6-(3-methyl-1H-1,2,4-triazol-1-yl)-2-(1-methyl-5-(4-(trifluoromethoxy)phenyl)-1H-imidazol-2-yl)pyridine]: the mortality at 125 ppm with Plutella xylostella, with Aphis craccivora, in the data set on Nilaparvata lugens and in the data set on Phyllotreta striolata was ≥ 80% in each case. For the same molecule, the mortality at 10 ppm in the data set with Culex pipiens molestus is 100%.
Take `CCS(=O)(=O)c1cc(C(F)(F)F)ccc1-c1nc(Br)c(-n2cc(I)cn2)n1C` [b-1]: the melting point lay within 202 to 204 °C.
`CCS(=O)(=O)c1cc(C(F)(F)F)ccc1-c1nc(Br)c(-n2cc(C(F)(F)F)cn2)n1C` [b-2] had a melting point of 176 to 178 °C.
On to `CCSc1cnc(-n2cncn2)nc1-c1ncc(-c2ccc(OC(F)(F)F)cc2)n1C` [compound 2, 5-(ethylthio)-4-(1-methyl-5-(4-(trifluoromethoxy)phenyl)-1H-imidazol-2-yl)-2-(1H-1,2,4-triazol-1-yl)pyrimidine], for which the mortality at 10 ppm in the data set with Culex pipiens molestus is 100%.
